# Measurements: the supplement of paper PMC10307832
# Experiments:
# Experiment in all cases: relative viability (nuclei count vs DMSO), 5 days (fraction); higher = more cells survive
# [1] = compound: NCC(=O)Nc1ccc(-n2nc(C(F)(F)F)cc2-c2ccc3c(ccc4ccccc43)c2)cc1 + CS(=O)(=O)CCNCc1ccc(-c2ccc3ncnc(Nc4ccc(OCc5cccc(F)c5)c(Cl)c4)c3c2)o1 [Lapatinib] (partner 2 µM)
# How it was run: (§1)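 For relative viability, nuclei counts in treated wells were divided by those in vehicle wells. Lung cancer cell lines had been pin-tool dosed in 1536-well plates the day after seeding and cultured for 5 days, then fixed and stained in one step (final 0.05% Triton X-100, 1% formaldehyde, 1 ug/ml Hoechst) and imaged at 4×. Doses were one drug alone or a fixed anchor-drug dose plus five library-drug doses (not always all listed) in √10 steps, and values are duplicate-plate medians.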
# [2] = compound: NCC(=O)Nc1ccc(-n2nc(C(F)(F)F)cc2-c2ccc3c(ccc4ccccc43)c2)cc1 + N=C(N)NC(=N)NCCc1ccccc1 [Phenformin] (partner 250 µM)
# How it was run: as §1
# [3] = compound: NCC(=O)Nc1ccc(-n2nc(C(F)(F)F)cc2-c2ccc3c(ccc4ccccc43)c2)cc1 + NC(=O)Nc1cc(-c2cccc(F)c2)sc1C(=O)N[C@H]1CCCNC1 [AZD7762] (partner 0.2 µM)
# How it was run: as §1
# [4] = compound: C1CSC2=C(C(=O)N1)SC3=C2C=C(C=C3)O [kb NB 142-70] + CS(=O)(=O)N1CCN(Cc2cc3nc(-c4cccc5[nH]ncc45)nc(N4CCOCC4)c3s2)CC1 [Pictilisib] (partner 1 µM)
# How it was run: as §1
Cell Line,relative viability ([1]; first compound 0.02 µM),relative viability ([1]; first compound 0.06325 µM),relative viability ([1]; first compound 0.6325 µM),relative viability ([1]; first compound 2 µM),relative viability ([2]; first compound 0.02 µM),relative viability ([2]; first compound 0.06325 µM),relative viability ([2]; first compound 0.2 µM),relative viability ([2]; first compound 0.6325 µM),relative viability ([2]; first compound 2 µM),relative viability ([3]; first compound 0.02 µM),relative viability ([3]; first compound 0.06325 µM),relative viability ([3]; first compound 0.2 µM),relative viability ([3]; first compound 0.6325 µM),relative viability ([3]; first compound 2 µM),relative viability ([4]; first compound 0.1 µM),relative viability ([4]; first compound 1 µM),relative viability ([4]; first compound 3.162 µM),relative viability ([1]; first compound 0.2 µM)
LCLC-97TM1,0.816,1.13,0.981,0.893,0.397,0.434,0.466,0.442,0.442,0.284,0.253,0.28,0.39,0.159,0.216,0.232,0.236,–
PC-3 [JPC-3],0.411,0.458,0.444,0.528,0.497,0.486,0.439,0.485,0.492,0.792,0.873,0.85,0.88,0.832,0.769,0.768,0.672,0.428
BEN,0.738,1.11,0.708,0.542,0.249,0.239,0.302,0.269,0.228,0.627,0.76,0.789,0.798,0.628,0.561,0.527,0.405,0.701
NCI-H1666,0.59,0.61,0.744,0.604,0.552,0.566,0.539,0.586,0.579,0.75,0.844,0.919,0.868,0.91,0.405,0.346,0.204,0.588
LC-2-ad,0.967,0.932,0.96,1.06,0.531,0.643,0.609,0.614,0.649,1.09,0.875,0.772,0.849,0.886,0.508,0.545,0.311,1.02
NCI-H1975,0.816,0.915,0.91,0.969,0.392,0.375,0.439,0.424,0.422,0.732,0.699,0.777,0.691,0.708,0.263,0.264,0.178,0.854
NCI-H1993,0.754,0.707,0.909,0.901,0.453,0.438,0.515,0.493,0.5,0.957,0.933,0.706,0.839,0.784,0.917,0.787,0.649,0.859
RERF-LC-KJ,0.955,0.828,0.891,0.82,0.41,0.458,0.412,0.409,0.403,0.959,0.863,0.996,1.12,1.03,0.504,0.519,0.374,0.909
NCI-H23,1.18,0.96,1.12,0.955,0.702,0.801,0.802,0.823,0.799,0.191,0.249,0.219,0.274,0.277,0.517,0.42,0.293,1.12
HCC-366,1.04,1.07,0.997,0.698,0.589,0.649,0.595,0.625,0.596,0.236,0.205,0.31,0.276,0.333,0.13,0.127,0.092,1.12
EMC-BAC-2,0.859,0.925,0.9,0.891,0.472,0.488,0.549,0.56,0.541,1.09,1.1,1.1,1.13,1.16,0.581,0.562,0.431,0.903
NCI-H2405,1.05,1.12,1.02,1.13,0.402,0.399,0.416,0.38,0.475,0.725,0.781,0.774,0.728,0.718,0.378,0.379,0.382,1.13
NCI-H358,0.553,0.323,0.528,0.491,0.335,0.319,0.293,0.365,0.343,0.535,0.593,0.607,0.609,0.526,0.35,0.3,0.189,0.41
NCI-H1944,0.813,0.888,0.801,0.876,0.191,0.233,0.204,0.201,0.207,0.476,0.484,0.551,0.47,0.559,0.358,0.375,0.41,0.752
EPLC-272H,0.88,1.09,0.907,1.21,0.289,0.366,0.261,0.324,0.294,0.362,0.208,0.196,0.167,0.149,0.349,0.325,0.237,0.85
NCI-H1915,0.922,0.939,0.95,0.996,0.367,0.364,0.371,0.349,0.369,0.644,0.729,0.642,0.703,0.754,1.01,0.889,0.905,0.942
